From US9751869B2, “LXR modulators” (BRISTOL-MYERS SQUIBB COMPANY, priority 2013, dated 2017)

Biological target: T1, LXRβ (Homo sapiens, UniProt P55055)
T1 construct: Co-transfection expression plasmids, comprising full-length LXRα (pCMX-h LXRα or LXRβ (pCMX-hLXRβ)); expressed in transfected cells; host or cells: CV-1 African green monkey kidney cells, transient transfection with pCMX-hLXRβ
T1 sequence (P55055 1-460): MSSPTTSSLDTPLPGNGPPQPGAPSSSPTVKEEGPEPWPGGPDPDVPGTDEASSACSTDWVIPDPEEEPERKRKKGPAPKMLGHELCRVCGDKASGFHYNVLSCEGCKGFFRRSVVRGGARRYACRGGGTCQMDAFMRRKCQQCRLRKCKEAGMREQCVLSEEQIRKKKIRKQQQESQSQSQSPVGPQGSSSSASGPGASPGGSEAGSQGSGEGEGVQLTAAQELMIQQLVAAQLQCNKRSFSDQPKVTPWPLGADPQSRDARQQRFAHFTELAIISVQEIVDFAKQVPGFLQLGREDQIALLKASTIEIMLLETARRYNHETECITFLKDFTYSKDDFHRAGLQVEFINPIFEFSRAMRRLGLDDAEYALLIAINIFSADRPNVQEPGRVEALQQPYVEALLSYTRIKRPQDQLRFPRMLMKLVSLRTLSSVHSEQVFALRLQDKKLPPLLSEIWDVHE
T1 sequence (P19793 1-462 partner): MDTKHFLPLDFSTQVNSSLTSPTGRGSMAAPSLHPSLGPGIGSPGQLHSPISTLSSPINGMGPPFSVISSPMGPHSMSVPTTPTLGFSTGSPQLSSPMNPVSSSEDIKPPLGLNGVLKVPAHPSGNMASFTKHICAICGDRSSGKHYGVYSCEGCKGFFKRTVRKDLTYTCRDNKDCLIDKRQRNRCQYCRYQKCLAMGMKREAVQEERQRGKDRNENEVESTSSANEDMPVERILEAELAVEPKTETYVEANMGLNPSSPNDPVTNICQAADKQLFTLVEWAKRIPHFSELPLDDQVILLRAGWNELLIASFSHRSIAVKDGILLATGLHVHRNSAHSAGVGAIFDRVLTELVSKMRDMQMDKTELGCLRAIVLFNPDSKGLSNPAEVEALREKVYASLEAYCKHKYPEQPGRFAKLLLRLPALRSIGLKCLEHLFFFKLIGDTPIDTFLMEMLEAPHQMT
Experiment: LXR/LXRE co-transfection assay (luciferase reporter) in CV-1 cells, LXRβ
Type: cell-based
Settings: for EC50: CV-1 cells transfected with pCMX-hLXRβ and LXREx1-Tk-Luciferase, 20 hours incubation, read-out: LXRbeta agonism EC50; for LXRbeta % EFFICACY / Emax: CV-1 cells, relative to maximum response of high control N-(3-((4-fluorophenyl)-(naphthalene-2-sulfonyl)amino)propyl)-2,2-dimethylpropionamide; for Emax: read-out: LXRbeta % EFFICACY
Summary of the method: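 CV-1 cells transiently co-transfected with full-length human LXRβ, LXRE-Tk-luciferase reporter and β-galactosidase control, then exposed to compound (≤0.5% DMSO) for 20 h at 37 °C before luminescence read. EC50 from 10-point, half-log dose curves; efficacy relative to the sulfonamide high control, means of 2–3 experiments.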

Compound | EC50 | LXRbeta % EFFICACY | Emax
Cc1nc(-c2ccc3c(c2)OC(F)(F)O3)c(-c2cc(-c3cccc(S(C)(=O)=O)c3)ccc2-c2cc(C(C)C#N)nn2C)o1 (centres unmarked) [Example 117, 2-(5-(3-(4-(2,2-difluorobenzo[d][1,3]dioxol-5-yl)-2-methyloxazol-5-yl)-3′-(methylsulfonyl)-[1,1′-biphenyl]-4-yl)-1-methyl-1H-pyrazol-3-yl)propanenitrile] | 49 nM | 70% | 
Cc1nc(-c2ccc3c(c2)OC(F)(F)O3)c(-c2cc(-c3cccc(S(C)(=O)=O)c3)ccc2-c2cc(C3(C#N)CC3)nn2C)o1 [Example 118, 1-(5-(3-(4-(2,2-difluorobenzo[d][1,3]dioxol-5-yl)-2-methyloxazol-5-yl)-3′-(methylsulfonyl)-[1,1′-biphenyl]-4-yl)-1-methyl-1H-pyrazol-3-yl) cyclopropanecarbonitrile] | 7 nM |  | 86%
Cc1nc(-c2ccc3c(c2)OC(F)(F)O3)c(-c2cc(-c3cccc(S(C)(=O)=O)c3)ccc2-c2cc(CC(N)=O)nn2C)o1 [Example 119, 2-(5-(3-(4-(2,2-difluorobenzo[d][1,3]dioxol-5-yl)-2-methyloxazol-5-yl)-3′-(methylsulfonyl)-[1,1′-biphenyl]-4-yl)-1-methyl-1H-pyrazol-3-yl)acetamide] | 1080 nM |  | 60%
Cc1nc(-c2ccc3c(c2)OC(F)(F)O3)c(-c2cc(-c3cc(F)c(CO)c(S(C)(=O)=O)c3)ccc2-c2cc(CC(C)(C)O)nn2C)o1 [Example 120, 1-(5-(3-(4-(2,2-difluorobenzo[d][1,3]dioxol-5-yl)-2-methyloxazol-5-yl)-3′-fluoro-4′-(hydroxymethyl)-5′-(methylsulfonyl)-[1,1′-biphenyl]-4-yl)-1-methyl-1H-pyrazol-3-yl)-2-methylpropan-2-ol] | 46 nM |  | 32%
Cc1nc(-c2ccc3c(c2)OC(F)(F)O3)c(-c2cc(-c3cccc(S(C)(=O)=O)c3)ccc2-c2cc(CC(C)(C)O)nn2C)o1 [Example 121, 1-(5-(3-(4-(2,2-difluorobenzo[d][1,3]dioxol-5-yl)-2-methyloxazol-5-yl)-3′-(methylsulfonyl)-[1,1′-biphenyl]-4-yl)-1-methyl-1H-pyrazol-3-yl)-2-methylpropan-2-ol] | 175 nM |  | 40%
Cc1nc(-c2ccc3c(c2)OC(F)(F)O3)c(-c2cc(-c3cc(F)c(CO)c(S(C)(=O)=O)c3)ccc2-c2cc(C#N)nn2C)o1 [Example 122, 5-(3-(4-(2,2-difluorobenzo[d][1,3]dioxol-5-yl)-2-methyloxazol-5-yl)-3′-fluoro-4′-(hydroxymethyl)-5′-(methylsulfonyl)-[1,1′-biphenyl]-4-yl)-1-methyl-1H-pyrazole-3-carbonitrile] | 63 nM |  | 22%
Cc1nc(-c2ccc3c(c2)OC(F)(F)O3)c(-c2cc(-c3cccc(S(C)(=O)=O)c3)ccc2-c2cc(C#N)nn2C)o1 [Example 123, 5-(3-(4-(2,2-difluorobenzo[d][1,3]dioxol-5-yl)-2-methyloxazol-5-yl)-3′-(methylsulfonyl)-[1,1′-biphenyl]-4-yl)-1-methyl-1H-pyrazole-3-carbonitrile] | 94 nM |  | 35%
Cc1nc(-c2ccc(OC(F)(F)F)cc2)c(-c2cc(-c3cccc(S(C)(=O)=O)c3)ccc2-c2cc(C(=O)NCC(C)(C)O)nn2C)o1 [Example 124] | 769 nM |  | 24%
Cc1nc(-c2ccc(OC(F)(F)F)cc2)c(-c2cc(-c3cc(Cl)c(CO)c(S(C)(=O)=O)c3)ccc2-c2cc(C(F)(F)F)nn2C)o1 [Example 125, (3-chloro-4′-(1-methyl-3-(trifluoromethyl)-1H-pyrazol-5-yl)-3′-(2-methyl-4-(4-(trifluoromethoxy)phenyl)oxazol-5-yl)-5-(methylsulfonyl)-[1,1′-biphenyl]-4-yl)methanol] | 179 nM |  | 88%
Cc1nc(-c2ccc(OC(F)(F)F)cc2)c(-c2cc(-c3cccc(S(N)(=O)=O)c3)ccc2-c2cc(C(F)(F)F)nn2C)o1 [Example 126, 4′-(1-methyl-3-(trifluoromethyl)-1H-pyrazol-5-yl)-3′-(2-methyl-4-(4-(trifluoromethoxy)phenyl)oxazol-5-yl)-[1,1′-biphenyl]-3-sulfonamide] | 299 nM |  | 85%
CNS(=O)(=O)c1cccc(-c2ccc(-c3cc(C(F)(F)F)nn3C)c(-c3oc(C)nc3-c3ccc(OC(F)(F)F)cc3)c2)c1 [Example 127, N-methyl-4′-(1-methyl-3-(trifluoromethyl)-1H-pyrazol-5-yl)-3′-(2-methyl-4-(4-(trifluoromethoxy)phenyl)oxazol-5-yl)-[1,1′-biphenyl]-3-sulfonamide] | 59 nM |  | 99%
Cc1nc(-c2ccc(OC(F)(F)F)cc2)c(-c2cc(-c3cccc(S(C)(=O)=O)c3)ccc2-c2cc(C(F)(F)C(N)=O)nn2C)o1 [Example 128] | 159 nM |  | 44%
Cc1nc(-c2ccc3c(c2)OC(F)(F)O3)c(-c2cc(-c3cccc(S(C)(=O)=O)c3)ccc2-c2cc(C(C)OC(N)=O)nn2C)o1 (centres unmarked) [Example 129, 1-(5-(3-(4-(2,2-difluorobenzo[d][1,3]dioxol-5-yl)-2-methyloxazol-5-yl)-3′-(methylsulfonyl)-[1,1′-biphenyl]-4-yl)-1-methyl-1H-pyrazol-3-yl)ethyl carbamate] | 87 nM |  | 48%
Cc1nc(-c2ccc3c(c2)OC(F)(F)O3)c(-c2cc(-c3cccc(S(C)(=O)=O)c3)ccc2-c2cc(C(C)OC(N)=O)nn2C)o1 (centres unmarked) [Example 130, 1-(5-(3-(4-(2,2-difluorobenzo[d][1,3]dioxol-5-yl)-2-methyloxazol-5-yl)-3′-(methylsulfonyl)-[1,1′-biphenyl]-4-yl)-1-methyl-1H-pyrazol-3-yl)ethyl carbamate] | 113 nM | 56% | 
Cc1nc(-c2ccc3c(c2)OC(F)(F)O3)c(-c2cc(-c3cc(F)c(CO)c(S(C)(=O)=O)c3)ccc2-c2cc(C(C)OC(N)=O)nn2C)o1 (centres unmarked) [Example 131, 1-(5-(3-(4-(2,2-difluorobenzo[d][1,3]dioxol-5-yl)-2-methyloxazol-5-yl)-3′-fluoro-4′-(hydroxymethyl)-5′-(methylsulfonyl)-[1,1′-biphenyl]-4-yl)-1-methyl-1H-pyrazol-3-yl)ethyl carbamate] | 178 nM |  | 47%
Cc1nc(-c2ccc3c(c2)OC(F)(F)O3)c(-c2cc(-c3cc(F)c(CO)c(S(C)(=O)=O)c3)ccc2-c2cc(C(C)OC(N)=O)nn2C)o1 (centres unmarked) [Example 132, 1-(5-(3-(4-(2,2-difluorobenzo[d][1,3]dioxol-5-yl)-2-methyloxazol-5-yl)-3′-fluoro-4′-(hydroxymethyl)-5′-(methylsulfonyl)-[1,1′-biphenyl]-4-yl)-1-methyl-1H-pyrazol-3-yl)ethyl carbamate] | 157 nM | 49% | 
CC(=O)c1cc(-c2ccc(-c3cc(F)c(CO)c(S(C)(=O)=O)c3)cc2-c2oc(C)nc2-c2ccc3c(c2)OC(F)(F)O3)n(C)n1 [Example 133, 1-(5-(3-(4-(2,2-difluorobenzo[d][1,3]dioxol-5-yl)-2-methyloxazol-5-yl)-3′-fluoro-4′-(hydroxymethyl)-5′-(methylsulfonyl)-[1,1′-biphenyl]-4-yl)-1-methyl-1H-pyrazol-3-yl)ethanone] | 12 nM |  | 66%
Cc1cc(C(F)(F)F)nn1-c1ccc(-c2cccc(S(C)(=O)=O)c2)cc1-n1nncc1-c1ccc(OC(F)(F)F)cc1 [Example 300, 1-{3′-(methylsulfonyl)-4-[5-methyl-3-(trifluoromethyl)-1H-pyrazol-1-yl]biphenyl-3-yl}-5-{4-[(trifluoromethyl)oxy]phenyl}-1H-1,2,3-triazole] | 153 nM |  | 99%
Cc1cc(C(F)(F)F)nn1-c1ccc(-c2cc(F)c(CO)c(S(C)(=O)=O)c2)cc1-n1nncc1-c1ccc(OC(F)(F)F)cc1 [Example 301, [3-fluoro-5-(methylsulfonyl)-4′-[5-methyl-3-(trifluoromethyl)-1H-pyrazol-1-yl]-3′-(5-{4-[(trifluoromethyl)oxy]phenyl}-1H-1,2,3-triazol-1-yl)biphenyl-4-yl]methanol] | 32 nM |  | 101%
